Measurements taken from patent US20130123222A1, “Synergistic Anti-Cancer Activity of SR16388 with Anti-Mitotic Drugs” (SRI INTERNATIONAL, INC., priority 2011, published 2013).

Legend:
[1] = tested on: panel of 48 to 60 cell lines; assay: 5×4 combination screen with SR16388, CellTiter-Glo viability; synergy by pattern recognition
cancer cell lines = assay: Combination cell viability assay, general observations on ratios and confirmed synergy; type: cell-based
Description: Cells were treated with compounds alone or in combination for three days and CellTiter-Glo® Luminescent Cell Viability Assay (Promega Corp.) was used as the endpoint to measure cell viability. […] Cells were harvested on Day-1 (FIG. 1A) and re-supspended to the corresponding seeding density and seeded with Wellmate (ThermoFisher) to 384 plates (BD or GBO). […] Master plates were made with Janus (PerkinElmer), then further diluted and added to the cell plates with Matrix Platemate (Thermo) on Day 0. CellTiter-Glo® Luminescent Cell Viability Assay (Promega Corp.) was used to measure ATP as an indicator of viable cells on Day 3 using Envision (PerkinElmer) and back up reader Analyst HT (MDS) and Gen5 (BioTek). Relative Luminescent Units (RLU) were plotted against corresponding drug concentrations and fitted with standard four parameter sigmoidal curve with custom coded R program or Calcusyn (Biosoft, Cambridge, UK).

MCF7 = assay: 11×7 synergism hit rate; type: cell-based; conditions: Breast Cancer MCF7, combination with SR16388
Excerpt: (§1) SR16388 was synthesized in house.
(§2) Within the same type of cancer cells, some cell lines have more synergistic hits than others. Melanoma and breast cancer cell lines had the highest hit rate.

RPMI8226 = assay: 11×7 synergism hit rate; type: cell-based; conditions: Leukemia RPMI8226, combination with SR16388
Excerpt: as §1, §2

MALME = assay: 11×7 synergism hit rate; type: cell-based; conditions: Melanoma MALME, combination with SR16388
Excerpt: as §1, §2

CCRFCEM = assay: 11×7 synergism hit rate; type: cell-based; conditions: Leukemia CCRFCEM, combination with SR16388
Excerpt: as §1, §2

OVCAR3 = assay: 11×7 synergism hit rate; type: cell-based; conditions: Ovarian Cancer OVCAR3, combination with SR16388
Excerpt: as §1, §2

HOP62 = assay: 11×7 synergism hit rate; type: cell-based; conditions: NSCLC HOP62, combination with SR16388
Excerpt: as §1, §2

HOP92 = assay: 11×7 synergism hit rate; type: cell-based; conditions: NSCLC HOP92, combination with SR16388
Excerpt: as §1, §2

MOLT4 = assay: 11×7 synergism hit rate; type: cell-based; conditions: Leukemia MOLT4, combination with SR16388
Excerpt: as §1, §2

SR = assay: 11×7 synergism hit rate; type: cell-based; conditions: Leukemia SR, combination with SR16388
Excerpt: as §1, §2

CAKI1 = assay: 11×7 synergism hit rate; type: cell-based; conditions: Renal Cancer CAKI1, combination with SR16388
Excerpt: as §1, §2

NCIH322M = assay: 11×7 synergism hit rate; type: cell-based; conditions: NSCLC NCIH322M, combination with SR16388
Excerpt: as §1, §2

SNB75 = assay: 11×7 synergism hit rate; type: cell-based; conditions: CNS Cancer SNB75, combination with SR16388
Excerpt: as §1, §2

7860 = assay: 11×7 synergism hit rate; type: cell-based; conditions: Renal Cancer 7860, combination with SR16388
Excerpt: as §1, §2

SKMEL28 = assay: 11×7 synergism hit rate; type: cell-based; conditions: Melanoma SKMEL28, combination with SR16388
Excerpt: as §1, §2

MDAMB468 = assay: 11×7 synergism hit rate; type: cell-based; conditions: Breast Cancer MDAMB468, combination with SR16388
Excerpt: as §1, §2

SF539 = assay: 11×7 synergism hit rate; type: cell-based; conditions: CNS Cancer SF539, combination with SR16388
Excerpt: as §1, §2

SKOV3 = assay: 11×7 synergism hit rate; type: cell-based; conditions: Ovarian Cancer SKOV3, combination with SR16388
Excerpt: as §1, §2

SF295 = assay: 11×7 synergism hit rate; type: cell-based; conditions: CNS Cancer SF295, combination with SR16388
Excerpt: as §1, §2

SKMEL5 = assay: 11×7 synergism hit rate; type: cell-based; conditions: Melanoma SKMEL5, combination with SR16388
Excerpt: as §1, §2

EKVX = assay: 11×7 synergism hit rate; type: cell-based; conditions: NSCLC EKVX, combination with SR16388
Excerpt: as §1, §2

DU145 = assay: 11×7 synergism hit rate; type: cell-based; conditions: Prostate Cancer DU145, combination with SR16388
Excerpt: as §1, §2

HT29 = assay: 11×7 synergism hit rate; type: cell-based; conditions: Colon Cancer HT29, combination with SR16388
Excerpt: as §1, §2

OVCAR8 = assay: 11×7 synergism hit rate; type: cell-based; conditions: Ovarian Cancer OVCAR8, combination with SR16388
Excerpt: as §1, §2

SN12C = assay: 11×7 synergism hit rate; type: cell-based; conditions: Renal Cancer SN12C, combination with SR16388
Excerpt: as §1, §2

ACHN = assay: 11×7 synergism hit rate; type: cell-based; conditions: Renal Cancer ACHN, combination with SR16388
Excerpt: as §1, §2

MDAMB435 = assay: 11×7 synergism hit rate; type: cell-based; conditions: Melanoma MDAMB435, combination with SR16388
Excerpt: as §1, §2

HCT15 = assay: 11×7 synergism hit rate; type: cell-based; conditions: Colon Cancer HCT15, combination with SR16388
Excerpt: as §1, §2

UACC257 = assay: 11×7 synergism hit rate; type: cell-based; conditions: Melanoma UACC257, combination with SR16388
Excerpt: as §1, §2

SW620 = assay: 11×7 synergism hit rate; type: cell-based; conditions: Colon Cancer SW620, combination with SR16388
Excerpt: as §1, §2

SF268 = assay: 11×7 synergism hit rate; type: cell-based; conditions: CNS Cancer SF268, combination with SR16388
Excerpt: as §1, §2

NCIH23 = assay: 11×7 synergism hit rate; type: cell-based; conditions: NSCLC NCIH23, combination with SR16388
Excerpt: as §1, §2

U031 = assay: 11×7 synergism hit rate; type: cell-based; conditions: Renal Cancer U031, combination with SR16388
Excerpt: as §1, §2

U251 = assay: 11×7 synergism hit rate; type: cell-based; conditions: CNS Cancer U251, combination with SR16388
Excerpt: as §1, §2

[2] = tested on: various cancer cell lines; assay: 11×7 synergism hit rate over all cell lines (by algorism); type: cell-based; conditions: for % Hit rate: combination with SR16388, identified by algorism, all cell lines; for interaction with SR16388 in 11×7 experiments: in combination with SR16388
Excerpt: as §1, §2

A549 = assay: 11×7 synergism hit rate; type: cell-based; conditions: NSCLC A549, combination with SR16388
Excerpt: as §1

HCT116 = assay: 11×7 synergism hit rate; type: cell-based; conditions: Colon Cancer HCT116, combination with SR16388
Excerpt: as §1, §2

[3] = in combination with SR16388, 5x4-T1, pattern recognition, of 60 cell lines incl. no data

CC(=O)O[C@H]1C(=O)[C@@]2(C)[C@H]([C@H](OC(=O)c3ccccc3)[C@]3(O)C[C@H](OC(=O)[C@H](O)[C@@H](NC(=O)c4ccccc4)c4ccccc4)C(C)=C1C3(C)C)[C@]1(OC(C)=O)CO[C@@H]1C[C@@H]2O [Paclitaxel]
interaction with SR16388 in the screen of 30 cancer therapeutic agents [1]: Synergistic anti-proliferation | no effect (number of cell lines) [1, 3]: 18 | synergy (number of cell lines) [1, 3]: 40 | % synergy ([1]; in combination with SR16388, 5x4-T1, share of cell lines with data): 69% | interaction with SR16388 (confirmed) (cancer cell lines; in combination with SR16388): synergistic anti-proliferation effect | interaction with more paclitaxel in the mixture (cancer cell lines; more paclitaxel than SR16388:Paclitaxel 67:33): antagonist interactions | % Hit rate (MCF7): 31% | % Hit rate (RPMI8226): 5% | % Hit rate (MALME): 14% | % Hit rate (CCRFCEM): 14% | % Hit rate (OVCAR3): 8% | % Hit rate (HOP62): 1% | % Hit rate (HOP92): 10% | % Hit rate (MOLT4): 21% | % Hit rate (SR): 1% | % Hit rate (CAKI1): 22% | % Hit rate (NCIH322M): 17% | % Hit rate (SNB75): 13% | % Hit rate 7860: 22% | % Hit rate (SKMEL28): 35% | % Hit rate (MDAMB468): 8% | % Hit rate (SF539): 19% | % Hit rate (SKOV3): 18% | % Hit rate (SF295): 8% | % Hit rate (SKMEL5): 12% | % Hit rate (EKVX): 0% | % Hit rate (DU145): 3% | % Hit rate (HT29): 22% | % Hit rate (OVCAR8): 13% | % Hit rate (SN12C): 13% | % Hit rate (ACHN): 14% | % Hit rate (MDAMB435): 12% | % Hit rate (HCT15): 14% | % Hit rate (UACC257): 35% | % Hit rate (SW620): 9% | % Hit rate (SF268): 22% | % Hit rate (NCIH23): 4% | % Hit rate (U031): 9% | % Hit rate (U251): 12% | % Hit rate [2]: 14.88% | interaction with SR16388 in 11×7 experiments [2]: synergistic effect

CC[C@]1(O)C[C@@H]2CN(CCc3c([nH]c4ccccc34)[C@@](C(=O)OC)(c3cc4c(cc3OC)N(C)[C@H]3[C@@](O)(C(=O)OC)[C@H](OC(C)=O)[C@]5(CC)C=CCN6CC[C@]43[C@@H]65)C2)C1 [Vinblastine]
% Hit rate (A549): 0% | % Hit rate (MCF7): 17% | % Hit rate (RPMI8226): 0% | % Hit rate (MALME): 0% | % Hit rate (CCRFCEM): 3% | % Hit rate (OVCAR3): 4% | % Hit rate (HOP62): 0% | % Hit rate (HOP92): 6% | % Hit rate (MOLT4): 8% | % Hit rate (SR): 0% | % Hit rate (CAKI1): 12% | % Hit rate (NCIH322M): 3% | % Hit rate (SNB75): 3% | % Hit rate 7860: 10% | % Hit rate (SKMEL28): 8% | % Hit rate (MDAMB468): 3% | % Hit rate (SF539): 8% | % Hit rate (SKOV3): 8% | % Hit rate (SF295): 0% | % Hit rate (HCT116): 6% | % Hit rate (SKMEL5): 5% | % Hit rate (EKVX): 1% | % Hit rate (DU145): 0% | % Hit rate (HT29): 8% | % Hit rate (OVCAR8): 5% | % Hit rate (SN12C): 1% | % Hit rate (ACHN): 3% | % Hit rate (MDAMB435): 4% | % Hit rate (HCT15): 10% | % Hit rate (UACC257): 6% | % Hit rate (SW620): 8% | % Hit rate (SF268): 6% | % Hit rate (NCIH23): 4% | % Hit rate (U031): 3% | % Hit rate (U251): 0% | % Hit rate [2]: 4.94% | interaction with SR16388 in 11×7 experiments [2]: synergistic effect
